Assay results reported in patent US20250009698A1, “NERVONIC ACID-BASED COMPOSITIONS AND METHODS” (REGENTS OF THE UNIVERSITY OF MINNESOTA, priority 2023, published 2025).
Entries after “also recorded” stand apart in the source; their conditions may differ.

Legend:
[1] = system: ALD cells (cALD and AMN cells); assay: Basal energy production measured as ATP content in ALD cells; type: cell-based, human
Procedure: (§1) In vitro and in vivo experiments were done to evaluate the ability of nervonic acid to modulate ALD associated biochemistry in various ALD phenotypes including childhood cerebral ALD (cALD) and adrenomyeloneuropathy (AMN). Nervonic acid (NA) was compared to the erucic acid (EA), the active ingredient in Lorenzo's oil. […] Additionally, the potential of NA and EA to alter the basal energy production measured as ATP content in ALD cells was assessed (Terluk et al., Neurotherapeutics 2022 April; 19(3):1007-1017. doi: 10.1007/s13311-022-01226-7). Following a five-day treatment with NA, cellular ATP content was increased in cALD cells (FIG. 6).

[2] = system: ALD double knockout mice; assay: In vivo mouse study, four-week NA or EA diet, fatty acids in plasma and tissues; conditions: for C26:0 in tissues, 3% NA group versus 3% EA group: comparison of 3% NA and 3% EA treatment groups
Procedure: An in vivo ALD double knockout mice model was used to evaluate the effect of NA or EA on various fatty acid concentrations in the tissue of the mice see Example). Mice were fed a diet containing 0.6% NA, 3% NA, or 3% EA for four weeks (FIG. 20). Blood samples taken every week and tissues harvested after four weeks of treatment were analyzed for fatty acid concentration.
Double ALD knockout mice were grown to eight weeks. At eight week the mice were split into four treatment groups. Three of the treatment groups received nervonic acid (NA, 0.6% or 3%) or erucic acid (EA, 3%) through their daily diet. Specifically, mice were fed with rodent chow (TEKLAD Rodent Chow available from Inotiv in West Lafayette, IN) mixed with the desired amount of NA or EA. Food was available continuously and new food was added every other day. Daily food intake was weighed and mouse weighed every week. Blood samples were taken weekly for four weeks. Following four weeks, the mice were sacrificed, and their tissues analyzed for fatty acid content. GCMS was used for lipid fatty acid content analysis and LC-MS/MS was used to analyze Lyso-PC.

[3] = preliminary animal studies; cited from earlier work
[4] = system: AMN and cALD cells; assay: Fatty acid levels in ALD cells treated with NA or EA; type: cell-based, human; conditions: 0, 5, 20, 50 μM
Procedure: as §1

[5] = system: Human dermal AMN fibroblasts (GM17819); assay: Imaging study of oxidative stress (CELLROX, MITOSOX); type: cell-based; conditions: five days, compared to vehicle and control
Procedure: A second set of in vitro experiments were conducted to more thoroughly understand the mechanism of action of nervonic acid in the mitochondria of ALD cells. AMN patient derived fibroblasts were treated with various concentrations of NA (5 μM, 20 μM, and 50 μM in ethanol) and evaluated for mitochondrial oxidative stress by evaluating reactive oxygen species (see Example) and mitochondrial respiration (see Example). FIG. 9 and FIG. 11 show images of the NA AMN treated cells stained for reactive oxygen species (green) or mitochondrial superoxide (red) and nuclei (blue; see Imaging Study in Example). FIG. 10 and FIG. 12 show bar graphs quantifying the reactive oxygen species fluorescence of FIG. 9 and the mitochondrial superoxide fluorescence of FIG. 11.
Human dermal fibroblasts (GM17819) were seeded on chamber slides with a density of 12,500 cells per well and incubated at 37° C. At ˜80% confluence, cells were treated with ethanol (vehicle, <0.1%) and NA (5 μM, 20 μM, or 50 μM) for five days. Untreated AMN fibroblasts were considered the control group. […] Cell localization and fluorescence visualization were then completed using a fluorescence microscope (BZ-X810; Keyence, Osaka, Japan). […]

[6] = system: AMN cells (GM17819); assay: Seahorse cell mitochondrial stress test (MST), oxygen consumption rate; type: cell-based, human; conditions: 5, 20, 50 μM NA, 24 hours
Procedure: Mitochondrial function was assessed using a cell mitochondrial stress test (MST; see Seahorse study in the Example). As depicted in FIG. 8, in this experiment, inhibitors of various electron transport chain components (oligomycin; FCCP/carbonyl cyanide 4-(trifluoromethoxy)phenylhydrazone; rotenone and antimycin A) are sequentially incubated with cells and the oxygen consumption rate (OCR) measured following each incubation to evaluate various individual parameters of respiration. The OCR of cells that were treated with NA was compared with cells not treated with NA. FIG. 13A-13, FIG. 14A-B, FIG. 15A-B, and FIG. 16A-B are plots showing the results of the respiration test.
Mitochondrial function was assessed on AMN cells (GM17819) using the Cell Mito Stress Test (CMST) in an XFe96 Extracellular Flux Analyzer (Agilent Technologies, Inc., Santa Clara, CA). Cells (1.25×10^4 cells/well) were seeded overnight on Cell-Tak coated XFe96 microplate and then treated with NA (5 μM, 20 μM, or 50 μM) for 24 hours. For the CMST measurements, the culture medium was replaced with XF DMEM medium supplemented with glutamine 4 mM, sodium pyruvate 1 mM, and glucose 24.9 mM, pH 7.4 and 37° C. Oxygen consumption rate (OCR) was detected at baseline and after the following injections: 1) oligomycin (3 μM), 2) carbonyl cyanide 4-(trifluoromethoxy)phenylhydrazone/FCCP (2 μM), and 3) rotenone (1 μM) plus antimycin A (1 μM). This protocol allowed the analysis of the following parameters: basal respiration, ATP production, proton leak, maximal respiration, spare respiratory capacity, non-mito respiration, coupling efficiency percent, and spare respiratory capacity percent. OCR data were normalized by the number of cells determined by using CyQUANT NF Cell Proliferation Assay Kit (Thermo Fisher Scientific, Inc., Waltham, MA) and a fluorescence microplate reader. OCR results were generated by SEAHORSE WAVE PRO (Agilent Technologies, Inc., Santa Clara, CA) and analyzed with the SEAHORSE Analytics software (Agilent Technologies, Inc., Santa Clara, CA).

[7] = system: AMN cells; assay: Long chain fatty acid (LCFA) oxidation stress test with UK5099, BPTES, etomoxir; type: cell-based, human; conditions: 20 μM NA, 24 h, with inhibitors UK, BP, ETO alone or combined
Source text: A long chain fatty acid (LCFA) oxidation stress test (SEAHORSE XF assay; Agilent Technologies, Inc., Santa Clara, CA) was used to assess how NA affects mitochondrial respiration when various metabolic pathways of mitochondria are inhibited. Specific inhibitors to block glucose, fatty acid or glutamine pathways were used alone or in combination to understand the substrate specific effects of NA. In this assay the mitochondrial stress test (MST) is repeated with one or more inhibitors of glycolysis, the TCA cycle, electron transport, and oxidative phosphorylation pathways are present. Etomoxir (Eto) is used to inhibit carnitine palmitoyl transferase 1a (CPT1a), an enzyme important in the mechanism for beta oxidation (degradation) of long chain fatty acids. UK5099 (UK) is used to inhibit transport of glucose and/or pyruvate by targeting the mitochondrial pyruvate carrier (MPC). BPTES (BP) is used to inhibit glutaminase GLS1, an enzyme that converts glutamine into glutamate, a substrate for further oxidation in the TCA cycle. AMN cells were incubated with one or more of the inhibitors with or without 20 μM NA and run through the mitochondrial stress test. The results are shown in FIG. 17, FIG. 18, and FIG. 19.

[8] = Pharmacokinetics of NA study, single oral dose; type: in vivo, mouse; conditions: male, ALD gene-knockout (ABCD1-), mouse, in vivo; single oral 10 mg; plasma; NCA
Procedure: (§2) Pharmacokinetic studies were conducted to determine the key pharmacokinetic parameters of NA in an ALD mouse model and assess alterations in plasma C26:0 levels following single-dose NA administration. The pharmacokinetic parameters of NA were defined for the first time in rodents (FIG. 35-39). […] The concentrations of NA in the brain (FIG. 37) and in the liver (FIG. 38) were determined.
(§3) Pharmacokinetic studies were conducted using 12-week-old male ALD gene-knockout mice (KO; ABCD1-) following a single oral administration of 10 mg of NA. Blood samples were collected from the submandibular vein prior to dosing and at 0.25, 0.5, 1, 2, 6, 18, 24, 30, 48, 72, and 168 hours post-administration. The concentrations of NA in plasma and tissues were analyzed at the Kennedy Krieger Institute using GC/MS. Pharmacokinetic parameters including systemic clearance (CL/F), volumes of distribution (V/F), elimination half-life (ti/2), and the area under the curve (AUC) were estimated using PHOENIX (Certara USA, Radnor, PA) with non-compartmental analysis (NCA).

[9] = system: ALD gene-knockout mice (KO; ABCD1-); assay: Pharmacokinetics of NA study, single oral dose; type: in vivo, mouse
Procedure: as §2, §3

[10] = cited from earlier work
[11] = target: T1, ELOVL1 (Homo sapiens, UniProt Q9BW60); conditions: earlier studies; cited from earlier work
T1 sequence (Q9BW60 1-279): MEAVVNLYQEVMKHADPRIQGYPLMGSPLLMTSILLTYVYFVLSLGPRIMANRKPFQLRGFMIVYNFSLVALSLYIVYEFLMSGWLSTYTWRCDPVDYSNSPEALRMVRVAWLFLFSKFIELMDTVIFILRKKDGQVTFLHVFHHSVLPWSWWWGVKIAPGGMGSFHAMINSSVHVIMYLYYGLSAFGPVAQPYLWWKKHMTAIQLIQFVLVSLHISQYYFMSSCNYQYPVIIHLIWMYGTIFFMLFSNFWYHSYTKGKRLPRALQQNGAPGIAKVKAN

[12] = system: ALD patient-derived fibroblasts; conditions: earlier studies; cited from earlier work

CCCCCCCC/C=C\CCCCCCCCCCCC(=O)O [EA, erucic acid, reference compound]
cellular ATP content (energy production) at 20 μM ([1]; 20 μM, compared to vehicle-treated cells, five-day treatment): did not show a marked increase
C22:1 amount in brain ([2]; 3% EA diet, four weeks): did not show an elevation
C22:1 (EA) levels in liver, kidney, heart, and adrenal ([2]; compared to control group, 3% EA diet, four weeks): significant elevation
C26:0 in tissues, 3% NA group versus 3% EA group [2]: no significant difference; also recorded: comparable
C22:1 (EA) level in plasma ([2]; only after 4-week treatment with 3% EA): significant increase
cardiotoxicity [3]: associated with cardiotoxicity

CCCCCCCC/C=C\CCCCCCCCCCCCCC(=O)O [NA, Nervonic acid]
amount of C26:0 fatty acid [4]: dose-dependent effect on decreasing
cellular ATP content ([1]; cALD cells, five-day treatment): increased
cellular ATP content at other concentrations ([1]; concentrations other than 20 μM, cALD and AMN cells): a trend was observed
mitochondrial superoxide (MITOSOX fluorescence) ([5]; 5 μM or 20 μM): decrease
reactive oxygen species (CELLROX fluorescence) ([5]; 5 μM, 20 μM, or 50 μM): decrease
ATP production [6]: increase
basal respiration [6]: increase
maximal respiration [6]: increase
spare respiratory capacity [6]: increase
acute response [7]: No significant change
basal respiration [7]: No significant change
maximal respiration [7]: No significant change
plasma C26:0 Lyso-phosphatidylcholine (C26:0 LPC) ([2]; after 4-week treatment, dose-dependent manner): significantly reduced
C24:1 levels in liver, kidney, heart, and adrenal gland ([2]; compared to control group, NA diet, four weeks): significant elevation
C26:0 in tissues, 3% NA group versus 3% EA group [2]: no significant difference; also recorded: comparable
plasma C26:0 ([2]; diet 0.6% or 3% NA): dose dependent decrease
NA level in plasma at steady state ([2]; following four-week treatment): approximately 70 pig/mL
C26:1 levels in plasma ([2]; intake of NA): significant increase
C26:0 levels in tissues ([2]; liver, kidney, brain, heart, adrenal, four weeks): decrease
AUC [8]: 2330 µg·h/mL
Cmax [8]: 32700 ng/mL
Tmax [8]: 2 h
half-life [8]: 62.3 h
CL/F ([9]; single oral 10 mg, plasma, NCA): 8.509 mL/h
Ke ([9]; single oral 10 mg, plasma, NCA): 0.01113 h⁻¹
V/F ([9]; single oral 10 mg, plasma, NCA): 764.7 mL
plasma C26:0 LPC ([9]; single oral dose 10 mg NA): does not significantly affect
plasma C26:0 levels ([9]; single oral dose 10 mg NA): does not significantly affect
solubility in dimethyl sulfoxide ([10]; dimethyl sulfoxide): approximately 20 mg/ml
solubility in dimethylformamide ([10]; dimethylformamide): approximately 20 mg/ml
solubility in ethanol ([10]; ethanol): approximately 10 mg/ml
inhibition of ELOVL1 [11]: competitively inhibit
accumulation of C26:0 [12]: biochemically reverse
